# Columns and labels:
# Assay type in all cases: in vivo
# Kochia (Kochia scoparia) [1] = test: Test A preemergence; conditions: Bassia scoparia, pre-emergence, 240 h, Preemergence
# Method in brief: (§1)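 Preemergence directed soil spray on seeded pots, or postemergence application to plants 2–10 cm, one- to two-leaf. Solvent mixture non-phytotoxic, with surfactant. Scored ~10 d later, visually, 0–100 vs untreated.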
# [2] = system: barnyardgrass (Echinochloa crus-galli); test: Test A preemergence; conditions: Echinochloa crus-galli, pre-emergence, 240 h, Preemergence
# Method in brief: as §1
# [3] = system: giant foxtail (Setaria faberii); test: Test A preemergence; conditions: Setaria faberi, pre-emergence, 240 h, Preemergence
# Method in brief: as §1
# [4] = system: pigweed (Amaranthus retroflexus); test: Test A preemergence; conditions: Amaranthus retroflexus, pre-emergence, 240 h, Preemergence
# [5] = system: ragweed (common ragweed, Ambrosia elatior); test: Test A preemergence; conditions: Ambrosia artemisiifolia, pre-emergence, 240 h, Preemergence
# Method in brief: as §1
# [6] = system: ryegrass, Italian (Italian ryegrass, Lolium multiflorum); test: Test A preemergence; conditions: Lolium multiflorum, pre-emergence, 240 h, Preemergence
# Method in brief: as §1
# [7] = system: Galium (catchweed bedstraw, Galium aparine); test: Test A postemergence; conditions: Galium, post-emergence, 240 h, Postemergence
# Method in brief: as §1
# Kochia (Kochia scoparia) [8] = test: Test A postemergence; conditions: Bassia scoparia, post-emergence, 240 h, Postemergence
# Method in brief: as §1
# [9] = system: barnyardgrass (Echinochloa crus-galli); test: Test A postemergence; conditions: Echinochloa crus-galli, post-emergence, 240 h, Postemergence
# Method in brief: as §1
# [10] = system: blackgrass (Alopecurus myosuroides); test: Test A postemergence; conditions: Alopecurus myosuroides, post-emergence, 240 h, Postemergence
# Method in brief: as §1
# corn (Zea mays) = test: Test A postemergence; conditions: Zea mays, post-emergence, 240 h, Postemergence
# Method in brief: as §1
# [11] = system: giant foxtail (Setaria faberii); test: Test A postemergence; conditions: Setaria faberi, post-emergence, 240 h, Postemergence
# Method in brief: as §1
# [12] = system: pigweed (Amaranthus retroflexus); test: Test A postemergence; conditions: Amaranthus retroflexus, post-emergence, 240 h, Postemergence
# Method in brief: as §1
# [13] = system: ragweed (common ragweed, Ambrosia elatior); test: Test A postemergence; conditions: Ambrosia artemisiifolia, post-emergence, 240 h, Postemergence
# Method in brief: as §1
# [14] = system: ryegrass, Italian (Italian ryegrass, Lolium multiflorum); test: Test A postemergence; conditions: Lolium multiflorum, post-emergence, 240 h, Postemergence
# Method in brief: as §1
# [15] = system: wheat (Triticum aestivum); test: Test A postemergence; conditions: Triticum aestivum, post-emergence, 240 h, Postemergence
# Method in brief: as §1
# [16] = system: barnyardgrass (Echinochloa crus-galli); test: Test B flooded paddy test; conditions: Echinochloa crus-galli, 360 h, Flood, 250 g ai/ha; visually evaluated after 13 to 15 d; read-out: Plant response rating, Barnyardgrass (0 to 100 scale where 0 is no effect and 100 is complete control)
# Method in brief: (§2)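 Plants at 2-leaf stage flooded to 3 cm above soil, with compounds applied directly to paddy water and that depth maintained. Plants kept in greenhouse 13–15 d. Visual rating versus controls on a 0 (no effect) to 100 (complete control) scale.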
# [17] = system: ducksalad (Heteranthera limosa); test: Test B flooded paddy test; conditions: Heteranthera limosa, 360 h, Flood, 250 g ai/ha; visually evaluated after 13 to 15 d; read-out: Plant response rating, Ducksalad (0 to 100 scale where 0 is no effect and 100 is complete control)
# Method in brief: as §2
# rice (Oryra sativa) = test: Test B flooded paddy test; conditions: Oryza sativa, 360 h, Flood, 250 g ai/ha; visually evaluated after 13 to 15 d; read-out: Plant response rating, Rice (0 to 100 scale where 0 is no effect and 100 is complete control)
# Method in brief: as §2
# [18] = system: sedge, umbrella (small-flower umbrella sedge, Cyperus difformis); test: Test B flooded paddy test; conditions: Cyperus difformis, 360 h, Flood, 250 g ai/ha; visually evaluated after 13 to 15 d; read-out: Plant response rating, Sedge, Umbrella (0 to 100 scale where 0 is no effect and 100 is complete control)
# Method in brief: as §2
smiles,measurement,setting,value
Cc1ccc([C@H]2CN(C)C(=O)[C@@H]2C(=O)Nc2ccc(F)nc2F)cc1 [Compound 1402],pest or weed control at 31 g/ha,"Kochia (Kochia scoparia) [1]; 31 g ai/ha, 0 to 100 scale where 0 is no effect and 100 is complete control, read-out: Kochia plant response rating",20%
same,pest or weed control at 125 g/ha,"Kochia (Kochia scoparia) [1]; 125 g ai/ha, 0 to 100 scale (0 no effect, 100 complete control), read-out: Plant response rating, Kochia",80%
same,pest or weed control at 31 g/ha,"[2]; 31 g ai/ha, 0 to 100 scale where 0 is no effect and 100 is complete control, read-out: Barnyardgrass plant response rating",100%
same,pest or weed control at 125 g/ha,"[2]; 125 g ai/ha, 0 to 100 scale (0 no effect, 100 complete control), read-out: Plant response rating, Barnyardgrass",90%
same,pest or weed control at 31 g/ha,"[3]; 31 g ai/ha, 0 to 100 scale where 0 is no effect and 100 is complete control, read-out: Foxtail, Giant plant response rating",100%
same,pest or weed control at 125 g/ha,"[3]; 125 g ai/ha, 0 to 100 scale (0 no effect, 100 complete control), read-out: Plant response rating, Foxtail, Giant",100%
same,pest or weed control at 31 g/ha,"[4]; 31 g ai/ha, 0 to 100 scale where 0 is no effect and 100 is complete control, read-out: Pigweed plant response rating",20%
same,pest or weed control at 125 g/ha,"[4]; 125 g ai/ha, 0 to 100 scale (0 no effect, 100 complete control), read-out: Plant response rating, Pigweed",90%
same,pest or weed control at 31 g/ha,"[5]; 31 g ai/ha, 0 to 100 scale where 0 is no effect and 100 is complete control, read-out: Ragweed plant response rating",30%
same,pest or weed control at 125 g/ha,"[5]; 125 g ai/ha, 0 to 100 scale (0 no effect, 100 complete control), read-out: Plant response rating, Ragweed",0%
same,pest or weed control at 31 g/ha,"[6]; 31 g ai/ha, 0 to 100 scale where 0 is no effect and 100 is complete control, read-out: Ryegrass, Italian plant response rating",0%
same,pest or weed control at 125 g/ha,"[6]; 125 g ai/ha, 0 to 100 scale (0 no effect, 100 complete control), read-out: Plant response rating, Ryegrass, Italian",0%
same,pest or weed control at 31 g/ha,"[7]; 31 g ai/ha, 0 is no effect, 100 is complete control, read-out: Galium plant response rating (0 to 100 scale)",60%
same,pest or weed control at 125 g/ha,"[7]; 125 g ai/ha, visual injury after approx. 10 d, 0 to 100 scale, 0 no effect, 100 complete control, read-out: Plant response rating, Galium",70%
same,pest or weed control at 31 g/ha,"Kochia (Kochia scoparia) [8]; 31 g ai/ha, 0 is no effect, 100 is complete control, read-out: Kochia plant response rating (0 to 100 scale)",30%
same,pest or weed control at 125 g/ha,"Kochia (Kochia scoparia) [8]; 125 g ai/ha, visual injury after approx. 10 d, 0 to 100 scale, 0 no effect, 100 complete control, read-out: Plant response rating, Kochia",70%
same,pest or weed control at 31 g/ha,"[9]; 31 g ai/ha, 0 is no effect, 100 is complete control, read-out: Barnyardgrass plant response rating (0 to 100 scale)",80%
same,pest or weed control at 125 g/ha,"[9]; 125 g ai/ha, visual injury after approx. 10 d, 0 to 100 scale, 0 no effect, 100 complete control, read-out: Plant response rating, Barnyardgrass",90%
same,pest or weed control at 31 g/ha,"[10]; 31 g ai/ha, 0 is no effect, 100 is complete control, read-out: Blackgrass plant response rating (0 to 100 scale)",0%
same,pest or weed control at 125 g/ha,"[10]; 125 g ai/ha, visual injury after approx. 10 d, 0 to 100 scale, 0 no effect, 100 complete control, read-out: Plant response rating, Blackgrass",50%
same,plant injury at 31 g/ha,"corn (Zea mays); 31 g ai/ha, 0 is no effect, 100 is complete control, read-out: Corn plant response rating (0 to 100 scale)",0%
same,"Corn plant response rating (crop injury, 0 = no effect, 100 = complete kill) at 125 g/ha","corn (Zea mays); 125 g ai/ha, visual injury after approx. 10 d, 0 to 100 scale, 0 no effect, 100 complete control",0%
same,pest or weed control at 31 g/ha,"[11]; 31 g ai/ha, 0 is no effect, 100 is complete control, read-out: Foxtail, Giant plant response rating (0 to 100 scale)",50%
same,pest or weed control at 125 g/ha,"[11]; 125 g ai/ha, visual injury after approx. 10 d, 0 to 100 scale, 0 no effect, 100 complete control, read-out: Plant response rating, Foxtail, Giant",90%
same,pest or weed control at 31 g/ha,"[12]; 31 g ai/ha, 0 is no effect, 100 is complete control, read-out: Pigweed plant response rating (0 to 100 scale)",0%
same,pest or weed control at 125 g/ha,"[12]; 125 g ai/ha, visual injury after approx. 10 d, 0 to 100 scale, 0 no effect, 100 complete control, read-out: Plant response rating, Pigweed",0%
same,pest or weed control at 31 g/ha,"[13]; 31 g ai/ha, 0 is no effect, 100 is complete control, read-out: Ragweed plant response rating (0 to 100 scale)",0%
same,pest or weed control at 125 g/ha,"[13]; 125 g ai/ha, visual injury after approx. 10 d, 0 to 100 scale, 0 no effect, 100 complete control, read-out: Plant response rating, Ragweed",20%
same,pest or weed control at 31 g/ha,"[14]; 31 g ai/ha, 0 is no effect, 100 is complete control, read-out: Ryegrass, Italian plant response rating (0 to 100 scale)",0%
same,pest or weed control at 125 g/ha,"[14]; 125 g ai/ha, visual injury after approx. 10 d, 0 to 100 scale, 0 no effect, 100 complete control, read-out: Plant response rating, Ryegrass, Italian",0%
same,plant injury at 31 g/ha,"[15]; 31 g ai/ha, 0 is no effect, 100 is complete control, read-out: Wheat plant response rating (0 to 100 scale)",20%
same,plant injury at 125 g/ha,"[15]; 125 g ai/ha, visual injury after approx. 10 d, 0 to 100 scale, 0 no effect, 100 complete control, read-out: Plant response rating, Wheat",40%
same,pest or weed control at 250 g/ha,[16],90%
same,pest or weed control at 250 g/ha,[17],95%
same,pest or weed control at 250 g/ha,rice (Oryra sativa),0%
same,pest or weed control at 250 g/ha,[18],0%
